Source: publication PMC3500254, “Potent Inhibition of Late Stages of Hepadnavirus Replication by a Modified Cell Penetrating Peptide” (PLoS ONE, 2012)
Read-outs that look alike come from different tables or passages of the source. Non-standard residues stand in square brackets, D forms with d. Residues, ends and D or L forms follow the SMILES beside them. *: point of attachment. Stearoyl = CCCCCCCCCCCCCCCCCC(=O)*; Palmitoyl = CCCCCCCCCCCCCCCC(=O)*; Myristoyl = CCCCCCCCCCCCCC(=O)*; Lauroyl = CCCCCCCCCCCC(=O)*; Decanoyl = CCCCCCCCCC(=O)*; Octanoyl = CCCCCCCC(=O)*

Assays:
[1] = system: Duck Hepatitis B Virus (DHBV); experiment: Inhibition of DHBV release in stably DHBV-transfected LMH-D2 cells (dot-blot of supernatant DHBV DNA); assay type: cell-based; conditions: concentration of CPP resulting in 50% inhibition of DHBV release, peptide added daily, PhosphorImager
Description: (§1) Infected PDH and LMH-D2 cells were treated with 2 µM of several modified cationic peptides for 5 days. Cells supernatants were collected daily and were spotted onto positively charged nylon membrane and DHBV DNA was detected by hybridization with a DHBV DNA probe labeled with ^32P, and then was quantified by PhosphorImager scanning using ImageQuant software (Molecular Dynamics) to monitor DHBV release. Relative areas under curves determined by the means of duplicate, compared to untreated cells set at 100% are represented. […] Cell viability was determined by enzymatic activity MTT assay after daily incubation with different concentrations of Deca-(Arg)8 ranking from 1 µM to 4 µM during six days. The error bars display the standard deviation of duplicates in three independent experiments.
(§2) DHBV-infected PDHs (A), and stable transfected LMH-D2 cells (B) were treated with increasing amounts of Deca-(Arg)8 ranking from 0.25 µM to 2 µM in duplicates for 6 and 4 days, respectively. Cell culture supernatants were collected daily during treatment. The kinetics of viral release in cell culture supernatants, monitored by dot-blot hybridization and quantified by PhosphorImager scanning using ImageQuant software (Molecular Dynamics) is represented on the upper panel. Relative areas under curves determined by the means of duplicate, compared to untreated cells, are represented in the lower panel. The curves are representative of at least two independent experiments.
(§3) Primary duck hepatocytes (PDH) were isolated from Pekin duck embryos as previously described. DHBV infection was performed at the same time as plating by overnight incubation (16 h) of the hepatocytes with a virus-positive duck serum (30 virus genome equivalents (vge) per cell). The previously described avian hepatoma DHBV transfected LMH-D2 cell line, [38] was grown as previously described. The stably HBV-transfected cell line HepG2.2.15 was grown as previously described. Different amounts of CatLip were added daily to the culture medium from day 1 post-seeding and cells were lyzed at the end of treatment for analysis of intracellular viral DNA, RNA, and proteins. The growth medium was harvested and changed daily. The cellular toxicity was analyzed by daily examination of cells with a light microscope and by a cell toxicity test based on the (3-(4,5-dimethylthiazol-2-yl)-2,5 diphenyl-tetrazolium-bromide (MTT) assay.
(§4) Cells supernatants were harvested daily, spotted onto positively charged nylon membrane and extracellular DHBV DNA was detected in supernatant of cells by dot blot hybridization assay using a full-length ^32P-labelled DHBV probe as described previously. For DHBV intermediate replicative forms analysis, DNA was extracted from cells and 10 µg of the total cellular DNA were subjected to electrophoresis on 1% agarose gel, followed by Southern blot analysis and hybridization with ^32P-labeled genomic DHBV probe as previously described. Viral DNA was quantified by PhosphorImager scanning using ImageQuant software (Molecular Dynamics).

[2] = system: Duck Hepatitis B Virus (DHBV)
Description: as §1, §2, §3, §4

PDH [3] = experiment: MTT cell viability, PDH; assay type: cell-based, Pekin duck; conditions: daily exposure 1 µM to 4 µM for 6 days, duplicates in three independent experiments
Description: (§5) Figure 1 Inhibition of DHBV release in PDHs and LMH-D2 cells by modified cationic peptides and effect of Deca-(Arg)8 on cell viability. Infected PDH and LMH-D2 cells were treated with 2 µM of several modified cationic peptides for 5 days. […] Relative areas under curves determined by the means of duplicate, compared to untreated cells set at 100% are represented. The two representations show the effect of modified cationic peptides derived from (Arg)8 sequence with increasing number of arginine in the peptide (A) or with increasing number of carbon in the fatty acid chain (B). Dose-dependent effects of Deca-(Arg)8 transduction on cell viability (C). Cell viability was determined by enzymatic activity MTT assay after daily incubation with different concentrations of Deca-(Arg)8 ranking from 1 µM to 4 µM during six days. The error bars display the standard deviation of duplicates in three independent experiments. […]
(§6) Primary duck hepatocytes (PDH) were isolated from Pekin duck embryos as previously described. […] The cellular toxicity was analyzed by daily examination of cells with a light microscope and by a cell toxicity test based on the (3-(4,5-dimethylthiazol-2-yl)-2,5 diphenyl-tetrazolium-bromide (MTT) assay.

LMH-D2 cells = assay type: cell-based, avian; conditions: daily exposure 1 µM to 4 µM for 6 days, duplicates in three independent experiments
Description: as §5, §6

PDH [4] = conditions: 24 hours at 37°C, 5% CO2, fluorescence microscopy; for FITC-labelled cells (internalization): 0.5 µM; for percentage of FITC-labelled cells: 2 µM
Description: Next we analyzed cellular internalization of Deca-(Arg)8-FITC and Arg8-FITC in PDH cells using fluorescence microscopy.
(A); PDHs were plated and treated with (Arg)8 (left panel) or Deca-(Arg)8 (right panel) coupled to FITC at different concentration ranking from 0.5 µM to 2 µM and cells were incubated at 37°c, 5% of CO2 for 24 hours. Cells were observed by fluorescence microscopy (Magnificationx20).

| Molecule | IC50 [1] | IC50 ([2]; 16 h) | other results |
| --- | --- | --- | --- |
| N=C(N)NCCC[C@@H](NC(=O)[C@H](N)Cc1c[nH]c2ccccc12)C(=O)N[C@H](CCCNC(=N)N)C(=O)N[C@H](CCCNC(=N)N)C(=O)N[C@H](CCCNC(=N)N)C(=O)N[C@H](CCCNC(=N)N)C(=O)N[C@H](CCCNC(=N)N)C(=O)N[C@H](CCCNC(=N)N)C(=O)N[C@H](CCCNC(=N)N)C(=O)NCC(N)=O [(Arg)8] (H-[dW][dR][dR][dR][dR][dR][dR][dR][dR]G-NH2) | 1.3 µM | 1.8 µM | inhibition of DHBV secretion ([2]; 5-days treatment, (Arg)8 0.5 to 2 µM, compared with Deca-(Arg)8, Fig. S2 (PDH and LMH-D2; cell system not given)): 60% |
| CCCCCCCCCC(=O)N[C@H](Cc1c[nH]c2ccccc12)C(=O)N[C@H](CCCNC(=N)N)C(=O)N[C@H](CCCNC(=N)N)C(=O)N[C@H](CCCNC(=N)N)C(=O)N[C@H](CCCNC(=N)N)C(=O)N[C@H](CCCNC(=N)N)C(=O)N[C@H](CCCNC(=N)N)C(=O)NCC(N)=O [Deca-(Arg)6] | 2.2 µM | – | IC50 ([2]; read-out: IC50 of DHBV release, PDH, DHBV-infected PDH, concentration of CPP resulting in 50% inhibition of DHBV release, peptide added daily, supernatant DHBV DNA by dot-blot, 32P probe, PhosphorImager): 1.4 µM |
| CCCCCCCCCC(=O)N[C@H](Cc1c[nH]c2ccccc12)C(=O)N[C@H](CCCNC(=N)N)C(=O)N[C@H](CCCNC(=N)N)C(=O)N[C@H](CCCNC(=N)N)C(=O)N[C@H](CCCNC(=N)N)C(=O)N[C@H](CCCNC(=N)N)C(=O)N[C@H](CCCNC(=N)N)C(=O)N[C@H](CCCNC(=N)N)C(=O)NCC(N)=O [Deca-(Arg)7] | 0.8 µM | 0.9 µM | – |
| CCCCCCCCCC(=O)N[C@H](Cc1c[nH]c2ccccc12)C(=O)N[C@H](CCCNC(=N)N)C(=O)N[C@H](CCCNC(=N)N)C(=O)N[C@H](CCCNC(=N)N)C(=O)N[C@H](CCCNC(=N)N)C(=O)N[C@H](CCCNC(=N)N)C(=O)N[C@H](CCCNC(=N)N)C(=O)N[C@H](CCCNC(=N)N)C(=O)N[C@H](CCCNC(=N)N)C(=O)NCC(N)=O [Deca-(Arg)8] (Decanoyl-[dW][dR][dR][dR][dR][dR][dR][dR][dR]G-NH2) | 0.3 µM | 0.6 µM | cell viability (MTT) versus untreated cells (PDH [3]): No statistically significant difference; cell viability (MTT) versus untreated cells (LMH-D2 cells): No statistically significant difference |
| CCCCCCCCCC(=O)N[C@H](Cc1c[nH]c2ccccc12)C(=O)N[C@H](CCCNC(=N)N)C(=O)N[C@H](CCCNC(=N)N)C(=O)N[C@H](CCCNC(=N)N)C(=O)N[C@H](CCCNC(=N)N)C(=O)N[C@H](CCCNC(=N)N)C(=O)N[C@H](CCCNC(=N)N)C(=O)N[C@H](CCCNC(=N)N)C(=O)N[C@H](CCCNC(=N)N)C(=O)N[C@H](CCCNC(=N)N)C(=O)NCC(N)=O [Deca-(Arg)9] (Decanoyl-[dW][dR][dR][dR][dR][dR][dR][dR][dR][dR]G-NH2) | – | 1.6 µM | – |
| CCCCCCCCCC(=O)N[C@H](Cc1c[nH]c2ccccc12)C(=O)N[C@H](CCCNC(=N)N)C(=O)N[C@H](CCCNC(=N)N)C(=O)N[C@H](CCCNC(=N)N)C(=O)N[C@H](CCCNC(=N)N)C(=O)N[C@H](CCCNC(=N)N)C(=O)N[C@H](CCCNC(=N)N)C(=O)N[C@H](CCCNC(=N)N)C(=O)N[C@H](CCCNC(=N)N)C(=O)N[C@H](CCCNC(=N)N)C(=O)N[C@H](CCCNC(=N)N)C(=O)NCC(N)=O [Deca-(Arg)10] | – | 1.4 µM | – |
| CCCCCCCCCC(=O)N[C@H](CCCNC(=N)N)C(=O)N[C@H](CCCNC(=N)N)C(=O)N[C@H](CCCNC(=N)N)C(=O)N[C@H](CCCNC(=N)N)C(=O)N[C@H](CCCCN)C(=O)N[C@H](CCCCN)C(=O)N[C@H](CCCCN)C(=O)N[C@H](CCCCN)C(=O)NCC(N)=O [Deca-(Arg-Lys)4–4] (Decanoyl-[dR][dR][dR][dR][dK][dK][dK][dK]G-NH2) | – | 2.3 µM | – |
| CCCCCCCCCCCC(=O)N[C@H](Cc1c[nH]c2ccccc12)C(=O)N[C@H](CCCNC(=N)N)C(=O)N[C@H](CCCNC(=N)N)C(=O)N[C@H](CCCNC(=N)N)C(=O)N[C@H](CCCNC(=N)N)C(=O)N[C@H](CCCNC(=N)N)C(=O)N[C@H](CCCNC(=N)N)C(=O)N[C@H](CCCNC(=N)N)C(=O)N[C@H](CCCNC(=N)N)C(=O)NCC(N)=O [Dodeca-(Arg)8] (Lauroyl-[dW][dR][dR][dR][dR][dR][dR][dR][dR]G-NH2) | 0.7 µM | 0.9 µM | – |
| CCCCCCCCCCCCCC(=O)N[C@H](Cc1c[nH]c2ccccc12)C(=O)N[C@H](CCCNC(=N)N)C(=O)N[C@H](CCCNC(=N)N)C(=O)N[C@H](CCCNC(=N)N)C(=O)N[C@H](CCCNC(=N)N)C(=O)N[C@H](CCCNC(=N)N)C(=O)N[C@H](CCCNC(=N)N)C(=O)N[C@H](CCCNC(=N)N)C(=O)N[C@H](CCCNC(=N)N)C(=O)NCC(N)=O [Myrist-(Arg)8] (Myristoyl-[dW][dR][dR][dR][dR][dR][dR][dR][dR]G-NH2) | 1.2 µM | 1.2 µM | – |
| CCCCCCCC(=O)N[C@H](Cc1c[nH]c2ccccc12)C(=O)N[C@H](CCCNC(=N)N)C(=O)N[C@H](CCCNC(=N)N)C(=O)N[C@H](CCCNC(=N)N)C(=O)N[C@H](CCCNC(=N)N)C(=O)N[C@H](CCCNC(=N)N)C(=O)N[C@H](CCCNC(=N)N)C(=O)N[C@H](CCCNC(=N)N)C(=O)N[C@H](CCCNC(=N)N)C(=O)NCC(N)=O [Octa-(Arg)8] (Octanoyl-[dW][dR][dR][dR][dR][dR][dR][dR][dR]G-NH2) | 2.7 µM | 1.7 µM | – |
| CCCCCCCCCCCCCCCC(=O)N[C@H](Cc1c[nH]c2ccccc12)C(=O)N[C@H](CCCNC(=N)N)C(=O)N[C@H](CCCNC(=N)N)C(=O)N[C@H](CCCNC(=N)N)C(=O)N[C@H](CCCNC(=N)N)C(=O)N[C@H](CCCNC(=N)N)C(=O)N[C@H](CCCNC(=N)N)C(=O)N[C@H](CCCNC(=N)N)C(=O)N[C@H](CCCNC(=N)N)C(=O)NCC(N)=O [Palmit-(Arg)8] (Palmitoyl-[dW][dR][dR][dR][dR][dR][dR][dR][dR]G-NH2) | 1.7 µM | 1.8 µM | – |
| CCCCCCCCCCCCCCCCCC(=O)N[C@H](Cc1c[nH]c2ccccc12)C(=O)N[C@H](CCCNC(=N)N)C(=O)N[C@H](CCCNC(=N)N)C(=O)N[C@H](CCCNC(=N)N)C(=O)N[C@H](CCCNC(=N)N)C(=O)N[C@H](CCCNC(=N)N)C(=O)N[C@H](CCCNC(=N)N)C(=O)N[C@H](CCCNC(=N)N)C(=O)N[C@H](CCCNC(=N)N)C(=O)NCC(N)=O [Stear-(Arg)8] (Stearoyl-[dW][dR][dR][dR][dR][dR][dR][dR][dR]G-NH2) | 1.8 µM | 1.9 µM | – |
| CCCCCCCCCC(=O)O [decanoic acid, reference compound] | – | – | effect on DHBV secretion ([2]; 5-days treatment, decanoic acid 0.5 to 10 µM, Fig. S2 (PDH and LMH-D2)): unable to significantly decrease DHBV secretion |
| Decanoic acid (C10:0)-Fluoresceinyl-lysine–RRRRRRRRG-NH2 [Deca-(Arg)8-FITC] | – | – | FITC-labelled cells (internalization) (PDH [4]): a higher number of FITC-labelled cells were observable; percentage of FITC-labelled cells (PDH [4]): more than 90% |
| Fluoresceinyl-lysine-RRRRRRRRG-NH2 [(Arg)8-FITC] | – | – | FITC-labelled cells (internalization) (PDH [4]): remained negative; percentage of FITC-labelled cells (PDH [4]): 70% |
